Results on nine molecules are retold here after US10258602B2 (Ocera Therapeutics, Inc., priority 2007, dated 2019).

Holding throughout (type): in vitro ADME
One data set addresses T1, CYP3A4 (Homo sapiens, UniProt P08684).
T1 construct: purchased BD Gentest, Becton-Dickinson (Supersomes); host or cells: insect cells
Briefly: Cytochrome P450 inhibition, CYP3A4 (two substrates). An excerpt:
(§1) K. Assay for Cytochrome P450 Inhibition
(§2) Cytochrome P450 enzymes are implicated in the phase I metabolism of drugs. The majority of drug-drug interactions are metabolism-based and, moreover, these interactions typically involve inhibition of cytochrome P450s. Six CYP450 enzymes (CYP1A2, CYP2C8, CYP2C9, CYP2C19, CYP2D6 and CYP3A4) appear to be commonly responsible for the metabolism of most drugs and the associated drug-drug interactions. Assays to determine the binding of compounds of the invention to the various metabolically important isoforms of cytochrome P450 metabolizing enzymes are commercially available, for example NoAb BioDiscoveries (Mississaugua, ON, Canada) and Absorption Systems (Exton, Pa., USA). As well, a number of appropriate methods have been described or reviewed in the literature. (White, R. E. Ann. Rev. Pharmacol. Toxicol. 2000, 40, 133-157; Li, A. P. Drug. Disc. Today 2001, 6, 357-366; Turpeinen, M.; Korhonen, L. E. Tolonen, A.; et al. Eur. J. Pharm. Sci, 2006, 29, 130-138.)
(§3) The key aspects of the experimental method were as follows: • 1. […] Assays monitored, via fluorescence detection, the formation of a fluorescent metabolite following incubation of the microsomes with a specific CYP substrate. • 3. Compounds of the present invention were tested in duplicate samples at eight test concentrations using 3-fold serial dilutions (concentration range of 0.0457 to 100 μM). • 4. For each CYP-450 enzyme, a specific inhibitor was tested in duplicate at eight concentrations as a positive control. • 5. The concentration of the inhibitor or test compound that inhibited metabolite formation by 50% (IC50) was calculated by non-linear regression analysis of the % inhibition vs. log concentration (M) curve.

A further data set addresses T2, CYP2B6 (Homo sapiens, UniProt P20813).
T2 construct: purchased BD Gentest, Becton-Dickinson (Supersomes); host or cells: insect cells
T2 sequence (P20813 1-491): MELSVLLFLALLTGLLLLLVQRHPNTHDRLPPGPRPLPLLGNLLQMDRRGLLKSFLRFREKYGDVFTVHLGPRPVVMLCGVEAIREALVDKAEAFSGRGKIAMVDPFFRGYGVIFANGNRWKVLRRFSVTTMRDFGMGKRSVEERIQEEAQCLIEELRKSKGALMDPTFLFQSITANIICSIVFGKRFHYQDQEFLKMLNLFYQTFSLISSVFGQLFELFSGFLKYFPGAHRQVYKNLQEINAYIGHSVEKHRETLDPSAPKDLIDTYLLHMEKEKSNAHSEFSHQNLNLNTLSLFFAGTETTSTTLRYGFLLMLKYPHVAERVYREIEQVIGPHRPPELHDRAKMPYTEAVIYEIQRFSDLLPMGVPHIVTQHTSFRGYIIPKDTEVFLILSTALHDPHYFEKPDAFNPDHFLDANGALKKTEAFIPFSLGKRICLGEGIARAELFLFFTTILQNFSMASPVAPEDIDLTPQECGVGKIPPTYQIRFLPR
Briefly: Cytochrome P450 inhibition, CYP2B6. The following applies: read-out: IC50 2B6.
Text: as §1, §2, §3

In another data set the test system is rat plasma. Briefly: Plasma protein binding, rat plasma.
The next data set has as its target T3, CYP2C8 (Homo sapiens, UniProt P10632).
T3 construct: purchased BD Gentest, Becton-Dickinson (Supersomes); host or cells: insect cells
T3 sequence (P10632 1-490): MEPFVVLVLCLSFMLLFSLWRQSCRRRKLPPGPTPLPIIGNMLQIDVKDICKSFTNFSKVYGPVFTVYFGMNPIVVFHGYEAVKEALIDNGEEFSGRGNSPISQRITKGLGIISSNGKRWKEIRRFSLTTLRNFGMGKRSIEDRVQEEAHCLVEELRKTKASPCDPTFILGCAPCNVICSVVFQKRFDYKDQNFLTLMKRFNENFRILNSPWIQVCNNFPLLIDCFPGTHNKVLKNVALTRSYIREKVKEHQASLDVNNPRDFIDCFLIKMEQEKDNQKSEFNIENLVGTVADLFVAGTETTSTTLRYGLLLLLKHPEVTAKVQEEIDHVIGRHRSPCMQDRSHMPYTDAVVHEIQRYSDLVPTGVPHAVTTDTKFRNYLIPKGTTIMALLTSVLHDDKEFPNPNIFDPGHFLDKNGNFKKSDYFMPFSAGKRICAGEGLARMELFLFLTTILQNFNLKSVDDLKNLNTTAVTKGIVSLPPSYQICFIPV
Briefly: Cytochrome P450 inhibition, CYP2C8. Particulars: read-out: IC50 2C8.
Text: as §1, §2, §3

For another data set, the target named is T4, CYP2A6 (Homo sapiens, UniProt P11509).
T4 construct: purchased BD Gentest, Becton-Dickinson (Supersomes); host or cells: insect cells
T4 sequence (P11509 1-494): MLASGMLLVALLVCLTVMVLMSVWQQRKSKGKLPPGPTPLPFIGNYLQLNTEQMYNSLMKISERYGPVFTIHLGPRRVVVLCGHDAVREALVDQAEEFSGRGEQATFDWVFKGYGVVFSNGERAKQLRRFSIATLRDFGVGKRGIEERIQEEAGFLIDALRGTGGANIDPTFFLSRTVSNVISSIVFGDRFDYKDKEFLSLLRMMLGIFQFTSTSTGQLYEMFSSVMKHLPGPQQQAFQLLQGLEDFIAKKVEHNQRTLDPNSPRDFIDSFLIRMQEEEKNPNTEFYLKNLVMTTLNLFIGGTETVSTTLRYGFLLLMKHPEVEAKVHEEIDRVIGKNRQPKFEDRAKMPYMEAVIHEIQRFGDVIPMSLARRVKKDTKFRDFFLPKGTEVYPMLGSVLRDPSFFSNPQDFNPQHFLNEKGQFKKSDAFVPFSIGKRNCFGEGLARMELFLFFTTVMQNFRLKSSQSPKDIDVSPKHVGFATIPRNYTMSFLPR
As to the kind of experiment: Cytochrome P450 inhibition, CYP2A6. Particulars: read-out: IC50 2A6.
Text: as §1, §2, §3

For the next data set, the system named is human plasma. As to the kind of experiment: Plasma protein binding, human plasma (equilibrium dialysis). An excerpt:
J. Plasma Protein Binding
The pharmacokinetic and pharmacodynamic properties of drugs are largely a function of the reversible binding of drugs to plasma or serum proteins such as albumin and α1-acid glycoprotein. In general, only unbound drug is available for diffusion or transport across cell membranes, and for interaction at the pharmacological target. On the other hand, drugs with low plasma protein binding generally have large volumes of distribution and rapid clearance since only unbound drug is available for glomerular filtration and, in some cases, hepatic clearance. Thus, the extent of plasma protein binding can influence efficacy, distribution and elimination. The ideal range for plasma protein binding is in the range of 87-98% for most drug products.
Protein binding studies were performed using human plasma. Briefly, 96-well microplates were used to incubate various concentrations of the test article for 60 min at 37° C. Bound and unbound fractions are separated by equilibrium dialysis, where the concentration remaining in the unbound fraction is quantified by LC-MS or LC-MS-MS analysis. […].
The table below presents protein binding data for representative compounds of the present invention in both human and rat plasma.
Background: Equilibrium dialysis compares concentrations on both sides of a semipermeable membrane.

The mark [1] stands for this setting: CYP3A4, substrate BFC, read-out: IC50 3A4 (BFC).
Setting [2] is: CYP3A4, substrate BQ, read-out: IC50 3A4 (BQ).

Where two headings read alike, the source gives them in different places. Where only a bound is given, the exact number is not on record here.

T1 sequence (P08684 whole entry): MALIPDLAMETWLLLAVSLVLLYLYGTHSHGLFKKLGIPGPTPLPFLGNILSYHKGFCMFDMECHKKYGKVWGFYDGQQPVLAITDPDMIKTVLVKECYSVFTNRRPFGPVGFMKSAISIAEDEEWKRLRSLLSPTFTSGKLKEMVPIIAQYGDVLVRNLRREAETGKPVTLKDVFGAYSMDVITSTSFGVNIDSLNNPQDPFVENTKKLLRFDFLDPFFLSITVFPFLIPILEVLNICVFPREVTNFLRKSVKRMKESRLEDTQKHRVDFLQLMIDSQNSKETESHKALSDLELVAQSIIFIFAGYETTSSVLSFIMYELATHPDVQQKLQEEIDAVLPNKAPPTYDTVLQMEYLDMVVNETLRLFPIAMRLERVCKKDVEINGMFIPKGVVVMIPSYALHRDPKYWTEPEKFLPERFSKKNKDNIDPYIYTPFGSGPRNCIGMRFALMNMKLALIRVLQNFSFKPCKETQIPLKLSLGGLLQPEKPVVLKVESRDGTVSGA

Take `CC1NC(C2CC2)C(=O)N(C)C(C)C(=O)NC(Cc2ccc(O)cc2)C(=O)NCCCc2ccccc2OC1C` (stereo not drawn) [Compound 820]: the IC50 (as a rule, the concentration that inhibits the measured activity by half) on CYP3A4 (setting [1]) is 47.4 µM; on CYP3A4 (setting [2]), 13.8 µM; at CYP2B6, > 100 µM; on CYP2C8, > 100 µM; on CYP2A6, > 100 µM. The “Rat Plasma Protein Binding (%)” value in the data set on rat plasma (test concentration 3 μg/mL) was 98.8%. Further, the “Human Plasma Protein Binding (%)” value in the data set on human plasma (test concentration 3 μg/mL) turned out to be 99.0%.

As to `CC(C)CC1NC(=O)C(C)N(C)C(=O)C(C2CCCCC2)NCC(C)OC2CCCCC2CCCNC1=O` (mixture of isomers) [Compound 828], the IC50 on CYP3A4 (setting [1]) is 18.7 µM; on CYP3A4 (setting [2]), 8.9 µM; on CYP2B6 it was > 100 µM; at CYP2C8, > 100 µM; on CYP2A6 it was > 100 µM. The “Human Plasma Protein Binding (%)” value in the data set with human plasma (test concentration 3 μg/mL) was found to be 76.8%.

As for `CC(C)C[C@H]1NC(=O)[C@@H](C)N(C)C(=O)[C@H](C2CC2)NC[C@@H](C)Oc2ccccc2CC[C@H](C)NC1=O` [Compound 807], the IC50 at CYP3A4 (setting [1]) was 23.3 µM; on CYP3A4 (setting [2]), 6.1 µM; on CYP2B6, > 100 µM; at CYP2C8, > 100 µM; on CYP2A6, > 100 µM.

Regarding `CC(C)C[C@H]1NC(=O)[C@@H](C)N(C)C(=O)[C@H](C2CC2)NCCOc2cc(F)ccc2CC[C@H](C)NC1=O` [Compound 822], the IC50 is 14.2 µM on CYP3A4 (setting [1]); 4.15 µM on CYP3A4 (setting [2]); > 100 µM at CYP2B6; > 100 µM at CYP2C8; > 100 µM at CYP2A6. Moreover, the “Rat Plasma Protein Binding (%)” value in the data set on rat plasma (test concentration 3 μg/mL) was 99.1%. In addition, the “Human Plasma Protein Binding (%)” value in the data set with human plasma (test concentration 3 μg/mL) came to 93.0%.

Consider `C[C@@H]1C(=O)N[C@H](Cc2ccc(O)cc2)C(=O)NCCCc2cccc3c2O[C@H](CC3)CN[C@@H](C2CC2)C(=O)N1C` [Compound 803], for which the half-inhibitory concentration (IC50) is 11.5 µM on CYP3A4 (setting [2]), 53.6 µM at CYP2B6, 54.6 µM at CYP2C8 and > 100 µM on CYP2A6. For the same molecule, in the data set with rat plasma (test concentration 1 μg/mL), the “Rat Plasma Protein Binding (%)” value is on record as 99.1%. Also, the “Human Plasma Protein Binding (%)” value in the data set on human plasma (test concentration 1 μg/mL) worked out at 97.8%.

Regarding `CC(C)C[C@H]1NC(=O)[C@@H](C)N(C)C(=O)[C@H](C2CC2)NCCOc2cc(F)ccc2CCCNC1=O` [Compound 810], the IC50 on CYP3A4 (setting [1]) was 7.42 µM; on CYP3A4 (setting [2]) it was 1.08 µM; on CYP2B6, 102 µM; on CYP2C8 it was > 100 µM; on CYP2A6, > 100 µM. The “Human Plasma Protein Binding (%)” value with human plasma (test concentration 3 μg/mL) is 78.9%.

With `CC1CNC(C2CC2)C(=O)N(C)C(C)C(=O)NC(Cc2ccc(O)cc2)C(=O)NCCCC2CCCCC2O1` (mixture of isomers) [Compound 826], the IC50 was 47.5 µM on CYP3A4 (setting [1]); 4.5 µM on CYP3A4 (setting [2]); > 100 µM at CYP2B6; > 100 µM at CYP2C8; > 100 µM on CYP2A6. Also, the “Rat Plasma Protein Binding (%)” value with rat plasma (test concentration 3 μg/mL) is 97.2%. The “Human Plasma Protein Binding (%)” value with human plasma (test concentration 3 μg/mL) is listed as 94.3%.

Regarding `CC(C)CC1NC(=O)C(C)N(C)C(=O)C(C2CC2)NCC(C)OC2CCCCC2CCCNC1=O` (mixture of isomers) [Compound 825], the IC50 is 93.4 µM on CYP3A4 (setting [1]); 6.7 µM on CYP3A4 (setting [2]); > 100 µM on CYP2B6; > 100 µM at CYP2C8; > 100 µM on CYP2A6. Besides, the “Rat Plasma Protein Binding (%)” value with rat plasma (test concentration 1 μg/mL) is given as 96.6%; in the data set on rat plasma (test concentration 5 μg/mL) it was 73%. Moreover, the “Human Plasma Protein Binding (%)” value in the data set with human plasma (test concentration 1 μg/mL) is reported as 83%; in the data set on human plasma (test concentration 5 μg/mL) it was 70%.

`C[C@@H]1C(=O)N[C@H](Cc2ccc(O)cc2)C(=O)NCCCc2ccc(F)cc2OCCN[C@@H](C2CC2)C(=O)N1C` [Compound 809]: the IC50 was 6.61 µM on CYP3A4 (setting [1]); 1.53 µM at CYP3A4 (setting [2]); > 100 µM at CYP2B6; > 100 µM at CYP2C8; > 100 µM at CYP2A6. Moreover, the “Rat Plasma Protein Binding (%)” value in the data set with rat plasma (test concentration 3 μg/mL) was found to be 92.8%. The “Human Plasma Protein Binding (%)” value in the data set on human plasma (test concentration 3 μg/mL) is on record as 88.4%.
